From US6656937B2, “Substituted glutarimides and their use as inhibitors of IL-12 production” (Gruenenthal, GmbH, priority 2000, dated 2003)
Structures can show the parent of a compound that is named as a salt.

Structure (SMILES) | melting point
NC(=O)c1ccccc1CN[C@H]1CCC(=O)NC1=O (as salt: hydrobromid) [Example 8.3, 2-[(3S)-(2,6-dioxopiperidin-3-ylamino)methyl]benzamide] | 155 to 156 °C (dec.)
NNC(=O)c1ccccc1CN[C@H]1CCC(=O)NC1=O (as salt: hydrobromid) [Example 8.6, 2-[(3S)-(2,6-dioxopiperidin-3-ylamino)methyl]benzoic acid hydrazide] | 241 to 242 °C
O=C1CC[C@H](NCc2ccccc2C(=O)Nc2ccccc2)C(=O)N1 (as salt: hydrobromid) [Example 8.7, 2-[(3S)-(2,6-dioxopiperidin-3-ylamino)methyl]-N-phenylbenzamide] | 136 to 138 °C
NC(=O)c1ccccc1CN[C@@H]1CCC(=O)NC1=O (as salt: hydrobromid) [Example 8.12, 2-[(3R)-(2,6-dioxopiperidin-3-ylamino)methyl]benzamide] | 232 to 233 °C
O=C1CCC(NCc2ccccc2C(F)(F)F)C(=O)N1 (racemic) (as salt: hydrochloride) [Example 2.1, 3-(2-trifluoromethylbenzylamino) piperidine-2,6-dione] | > 250 °C (dec.)
COc1ccc(CNC2CCC(=O)NC2=O)c(OC)c1 (racemic) (as salt: hydrochloride) [Example 2.2, 3-(2,4-dimethoxybenzylamino) piperidine-2,6-dione] | 214 °C (dec.)
O=C1CCC(NCc2c(F)cccc2F)C(=O)N1 (racemic) (as salt: hydrochloride) [Example 2.3, 3-(2,6-difluorobenzylamino) piperidine-2,6-dione] | 208 to 215 °C (dec.)
O=C1CCC(NCc2cc(F)ccc2F)C(=O)N1 (racemic) (as salt: hydrochloride) [Example 2.4, 3-(2,5-difluorobenzylamino) piperidine-2,6-dione] | 208 °C (dec.)
O=C1CCC(NCc2cc(F)cc(F)c2)C(=O)N1 (racemic) (as salt: hydrochloride) [Example 2.5, 3-(3,5-difluorobenzylamino) piperidine-2,6-dione] | 230 to 236 °C (dec.)
O=C1CCC(NCc2cccc3ccccc23)C(=O)N1 (racemic) (as salt: hydrochloride) [Example 2.6, 3-[(naphth-1-ylmethyl)amino]piperidine-2,6-dione] | 188 °C (dec.)
O=C1CCC(NCc2cccc(F)c2F)C(=O)N1 (racemic) (as salt: hydrochloride) [Example 2.7, 3-(2,3-difluorobenzylamino) piperidine-2,6-dione] | 206 to 212 °C (dec.)
O=C1CCC(NCc2cccc(OC(F)(F)F)c2)C(=O)N1 (racemic) (as salt: hydrochloride) [Example 2.11, 3-(3-trifluoromethoxybenzylamino) piperidine-2,6-dione] | 199 to 201 °C
O=C1CCC(NCc2ccc(F)cc2Cl)C(=O)N1 (racemic) (as salt: hydrochloride) [Example 2.13, 3-(2-chloro-4-fluorobenzylamino) piperidine-2,6-dione] | 241 to 242 °C
Cc1cccc(Cl)c1CNC1CCC(=O)NC1=O (racemic) (as salt: hydrochloride) [Example 2.15, 3-(2-chloro-6-methylbenzylamino) piperidine-2,6-dione] | 238 to 240 °C
Cc1ccccc1CNC1CCC(=O)NC1=O (racemic) (as salt: hydrochloride) [Example 2.16, 3-(2-methylbenzylamino) piperidine-2,6-dione] | 235 to 240 °C
O=C1CCC(NCc2cc(Cl)cc(Cl)c2)C(=O)N1 (racemic) (as salt: hydrochloride) [Example 2.17, 3-(3,5-dichlorobenzylamino) piperidine-2,6-dione] | 234 to 238 °C

Structure (SMILES) | melting point
O=C1CCC(NCc2cc(F)cc(C(F)(F)F)c2)C(=O)N1 (racemic) (as salt: hydrochloride) [Example 2.18, 3-[3-fluoro-5-(trifluoromethyl)benzylamino]piperidine-2,6-dione] | 241 to 243 °C
O=C1CCC(NCc2cccc(F)c2)C(=O)N1 (racemic) (as salt: hydrochloride) [Example 2.19, 3-(3-fluorobenzylamino) piperidine-2,6-dione] | 231 to 235 °C
Cc1cccc(CNC2CCC(=O)NC2=O)c1 (racemic) (as salt: hydrochloride) [Example 2.20, 3-(3-methylbenzylamino) piperidine-2,6-dione] | 240 to 242 °C
O=C1CCC(NCc2ccc(C(F)(F)F)cc2)C(=O)N1 (racemic) (as salt: hydrochloride) [Example 2.21, 3-(4-trifluoromethylbenzylamino) piperidine-2,6-dione] | 252 to 255 °C
O=C1CCC(NCc2ccc(F)cc2)C(=O)N1 (racemic) (as salt: hydrochloride) [Example 2.23, 3-(4-fluorobenzylamino) piperidine-2,6-dione] | 241 to 242 °C
O=C1CCC(NCc2cccc(Cl)c2)C(=O)N1 (racemic) (as salt: hydrochloride) [Example 2.26, 3-(3-chlorobenzylamino) piperidine-2,6-dione] | 237 to 238 °C
O=C1CCC(NCc2ccc(Cl)cc2Cl)C(=O)N1 (racemic) (as salt: hydrochloride) [Example 2.28, 3-(2,4-dichlorobenzylamino) piperidine-2,6-dione] | 240 to 242 °C
O=C1CCC(NCc2ccccc2F)C(=O)N1 (racemic) (as salt: hydrochloride) [Example 2.29, 3-(2-fluorobenzylamino) piperidine-2,6-dione] | 245 to 247 °C
O=C1CCC(NCc2ccccc2Br)C(=O)N1 (racemic) (as salt: hydrochloride) [Example 2.30, 3-(2-bromobenzylamino) piperidine-2,6-dione] | 244 to 246 °C
O=C1CCC(NCc2cccc(Cl)c2Cl)C(=O)N1 (racemic) (as salt: hydrochloride) [Example 2.32, 3-(2,3-dichlorobenzylamino) piperidine-2,6-dione] | 246 to 248 °C
O=C1CCC(NCc2ccc(Cl)c(Cl)c2)C(=O)N1 (racemic) (as salt: hydrochloride) [Example 2.33, 3-(3,4-dichlorobenzylamino) piperidine-2,6-dione] | 252 to 254 °C
O=C1CCC(NCc2cc(C(F)(F)F)cc(C(F)(F)F)c2)C(=O)N1 (racemic) (as salt: hydrochloride) [Example 2.34, 3-[3,5-bis(trifluoromethyl)benzylamino]piperidine-2,6-dione] | 263 to 265 °C
O=C1CCC(NCc2cccc(Br)c2)C(=O)N1 (racemic) (as salt: hydrochloride) [Example 2.35, 3-(3-bromobenzylamino) piperidine-2,6-dione] | 229 to 232 °C
O=C1CCC(NCc2ccc(OC(F)(F)F)cc2)C(=O)N1 (racemic) (as salt: hydrochloride) [Example 2.36, 3-(4-trifluoromethoxybenzylamino) piperidine-2,6-dione] | 253 to 255 °C
O=C1CCC(NCc2ccc(Cl)cc2)C(=O)N1 (racemic) (as salt: hydrochloride) [Example 2.37, 3-(4-chlorobenzylamino) piperidine-2,6-dione] | 262 to 265 °C
